Assay results published in US20110105509A1 (Wyeth, LLC, priority 2009, published 2011).

Target: T1, CRTH2 (Homo sapiens, UniProt Q9Y5Y4)
T1 construct: expressed in transfected cells; host or cells: CHO cells
T1 sequence (Q9Y5Y4 1-395): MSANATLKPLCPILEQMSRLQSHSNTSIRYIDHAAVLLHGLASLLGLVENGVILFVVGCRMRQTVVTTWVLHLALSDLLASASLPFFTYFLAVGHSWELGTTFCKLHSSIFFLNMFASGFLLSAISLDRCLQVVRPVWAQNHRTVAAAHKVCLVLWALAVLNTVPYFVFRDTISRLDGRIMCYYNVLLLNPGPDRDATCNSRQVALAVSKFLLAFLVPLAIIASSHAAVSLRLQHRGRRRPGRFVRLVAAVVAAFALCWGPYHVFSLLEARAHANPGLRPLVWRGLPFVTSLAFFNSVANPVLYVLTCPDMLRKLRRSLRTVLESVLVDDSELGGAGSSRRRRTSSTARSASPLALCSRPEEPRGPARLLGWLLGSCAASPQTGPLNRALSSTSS
Experiment: FRET based competitive immunoassay (cAMP) in CRTH2 expressing CHO cells
Format: cell-based
Conditions: CRTH2 expressing CHO cells incubated with forskolin and PGD2; Eu3+ cryptate-labeled anti-cAMP and d2-labeled cAMP
Protocol: FRET Assay: To evaluate potency compounds were tested in a FRET based competitive immunoassay in which CRTH2 expressing CHO cells were incubated in the presence of forskolin and PGD2 along with Eu3+ cryptate-labeled anti-cAMP and d2-labeled cAMP.

SMILES | IC50 [nM]
Cc1c(-c2ccc(OC(C)C)nc2)c2cc(F)ccc2n1CC(=O)O [Example 277] | 71
Cc1c(-c2ccc(=O)n(CC(F)(F)F)c2)c2ccccc2n1CC(=O)O [Example 279, 2-(2-methyl-3-(6-oxo-1-(2,2,2-trifluoroethyl)-1,6-dihydropyridin-3-yl)-1H-indol-1-yl)acetic acid] | 715
Cc1c(-c2ccc(=O)n(CC(F)(F)F)c2)c2cc(F)ccc2n1CC(=O)O [Example 280, 2-(5-Fluoro-2-methyl-3-(6-oxo-1-(2,2,2-trifluoroethyl)-1,6-dihydropyridin-3-yl)-1H-indol-1-yl)acetic acid] | 117
Cc1c(-c2ccc(=O)n(Cc3ccccc3F)c2)c2ccccc2n1CC(=O)O [Example 282, 2-(3-(1-(2-fluorobenzyl)-6-oxo-1,6-dihydropyridin-3-yl)-2-methyl-1H-indol-1-yl)acetic acid] | 11
Cc1c(-c2ccc(=O)n(Cc3cccc(F)c3F)c2)c2ccccc2n1CC(=O)O [Example 284, 2-(3-(1-(2,3-difluorobenzyl)-6-oxo-1,6-dihydropyridin-3-yl)-2-methyl-1H-indol-1-yl)acetic acid] | 15
Cc1c(-c2ccc(=O)n(Cc3c(F)cccc3F)c2)c2ccccc2n1CC(=O)O [Example 285, 2-(3-(1-(2,6-difluorobenzyl)-6-oxo-1,6-dihydropyridin-3-yl)-2-methyl-1H-indol-1-yl)acetic acid] | 23
Cc1c(-c2ccc(=O)n(C3CCCC3)c2)c2ccccc2n1CC(=O)O [Example 288, 2-(3-(1-cyclopentyl-6-oxo-1,6-dihydropyridin-3-yl)-2-methyl-1H-indol-1-yl)-acetic acid] | 117
Cc1c(-c2ccc(=O)n(Cc3ccc(F)cc3)c2)c2cc(Cl)ccc2n1CC(=O)O [Example 289, 2-(5-chloro-3-(1-(4-fluorobenzyl)-6-oxo-1,6-dihydropyridin-3-yl)-2-methyl-1H-indol-1-yl)acetic acid] | 6
Cc1c(-c2ccc(=O)n(Cc3cccc(F)c3F)c2)c2cc(Cl)ccc2n1CC(=O)O [Example 292, 2-(5-Chloro-3-(1-(2,3-difluorobenzyl)-6-oxo-1,6-dihydropyridin-3-yl)-2-methyl-1H-indol-1-yl)acetic acid] | 11
Cc1c(-c2ccc(=O)n(Cc3cccc(F)c3)c2)c2cc(Cl)ccc2n1CC(=O)O [Example 295, 2-(5-chloro-3-(1-(3-fluorobenzyl)-6-oxo-1,6-dihydropyridin-3-yl)-2-methyl-1H-indol-1-yl)acetic acid] | 11
Cc1c(-c2ccc(=O)n(CCCC(F)(F)F)c2)c2cc(F)ccc2n1CC(=O)O [Example 297, 2-(5-fluoro-2-methyl-3-(6-oxo-1-(4,4,4-trifluorobutyl)-1,6-dihydropyridin-3-yl)-1H-indol-1-yl)acetic acid] | 38
Cc1c(-c2ccc(=O)n(Cc3cccc(F)c3F)c2)c2cc(F)ccc2n1CC(=O)N1CCCC1 [Example 299, 1-(2,3-difluorobenzyl)-5-(5-fluoro-2-methyl-1-(2-oxo-2-(pyrrolidin-1-yl)-ethyl)-1H-indol-3-yl)pyridin-2(1H)-one] | > 2000
Cc1c(-c2ccc(=O)n(Cc3cccc(F)c3F)c2)c2cc(F)ccc2n1CC(N)=O [Example 301, 2-(3-(1-(2,3-difluorobenzyl)-6-oxo-1,6-dihydropyridin-3-yl)-5-fluoro-2-methyl-1H-indol-1-yl)acetamide] | > 2000
Cc1c(-c2ccc(=O)n(Cc3cccc(F)c3F)c2)c2cc(F)ccc2n1[C@@H](C)C(=O)O [Example 306a, (S)-2-(3-(1-(2,3-difluorobenzyl)-6-oxo-1,6-dihydropyridin-3-yl)-5-fluoro-2-methyl-1H-indol-1-yl)propanoic acid] | > 2000

The next lines start with the values.

IC50 [nM] | SMILES
23 | Cc1c(-c2cn(CCC(C)(C)O)c(=O)c3ccccc23)c2cc(F)ccc2n1CC(=O)O [Example 272, 2-(5-fluoro-3-(2-(3-hydroxy-3-methylbutyl)-1-oxo-1,2-dihydroisoquinolin-4-yl)-2-methyl-1H-indol-1-yl)acetic acid]
28 | Cc1c(-c2ccc(=O)n(Cc3ccc(F)cc3F)c2)c2cc(F)ccc2n1CC(=O)O [Example 273, 2-(3-(1-(2,4-difluorobenzyl)-6-oxo-1,6-dihydropyridin-3-yl)-5-fluoro-2-methyl-1H-indol-1-yl)acetic acid]
3 | Cc1c(-c2ccc(=O)n(Cc3ccc(F)cc3F)c2)c2cc(Cl)ccc2n1CC(=O)O [Example 274, 2-(5-chloro-3-(1-(2,4-difluorobenzyl)-6-oxo-1,6-dihydropyridin-3-yl)-2-methyl-1H-indol-1-yl)acetic acid]
30 | Cc1c(-c2ccc(=O)n(Cc3ccc(F)cc3F)c2)c2ccccc2n1CC(=O)O [Example 275, 2-(3-(1-(2,4-difluorobenzyl)-6-oxo-1,6-dihydropyridin-3-yl)-2-methyl-1H-indol-1-yl)acetic acid]
577 | Cc1c(-c2ccc(=O)n(C(C)C)c2)c2ccccc2n1CC(=O)O [Example 276, 2-(3-(1-isopropyl-6-oxo-1,6-dihydropyridin-3-yl)-2-methyl-1H-indol-1-yl)-acetic acid]
198 | Cc1c(-c2ccc(=O)n(C(C)C)c2)c2cc(Cl)ccc2n1CC(=O)O [Example 278, 2-(5-chloro-3-(1-isopropyl-6-oxo-1,6-dihydropyridin-3-yl)-2-methyl-1H-indol-1-yl)acetic acid]
240 | Cc1c(-c2ccc(=O)n(CC(F)(F)F)c2)c2cc(Cl)ccc2n1CC(=O)O [Example 281, 2-(5-chloro-2-methyl-3-(6-oxo-1-(2,2,2-trifluoroethyl)-1,6-dihydropyridin-3-yl)-1H-indol-1-yl)acetic acid]
16 | Cc1c(-c2ccc(=O)n(Cc3ccc(F)cc3)c2)c2ccccc2n1CC(=O)O [Example 283, 2-(3-(1-(4-fluorobenzyl)-6-oxo-1,6-dihydropyridin-3-yl)-2-methyl-1H-indol-1-yl)acetic acid]
11 | Cc1c(-c2ccc(=O)n(Cc3cc(F)c(F)cc3F)c2)c2ccccc2n1CC(=O)O [Example 286, 2-(2-methyl-3-(6-oxo-1-(2,4,5-trifluorobenzyl)-1,6-dihydropyridin-3-yl)-1H-indol-1-yl)acetic acid]
305 | Cc1c(-c2ccc(=O)n(CC(C)C)c2)c2ccccc2n1CC(=O)O [Example 287, 2-(3-(1-isobutyl-6-oxo-1,6-dihydropyridin-3-yl)-2-methyl-1H-indol-1-yl)-acetic acid]
7 | Cc1c(-c2ccc(=O)n(Cc3ccccc3F)c2)c2cc(Cl)ccc2n1CC(=O)O [Example 290, 2-(5-chloro-3-(1-(2-fluorobenzyl)-6-oxo-1,6-dihydropyridin-3-yl)-2-methyl-1H-indol-1-yl)acetic acid]
8 | Cc1c(-c2ccc(=O)n(Cc3c(F)cccc3F)c2)c2cc(Cl)ccc2n1CC(=O)O [Example 291, 2-(5-chloro-3-(1-(2,6-difluorobenzyl)-6-oxo-1,6-dihydropyridin-3-yl)-2-methyl-1H-indol-1-yl)acetic acid]
2 | Cc1c(-c2ccc(=O)n(Cc3cc(F)cc(F)c3)c2)c2cc(Cl)ccc2n1CC(=O)O [Example 294, 2-(5-Chloro-3-(1-(3,5-difluorobenzyl)-6-oxo-1,6-dihydropyridin-3-yl)-2-methyl-1H-indol-1-yl)acetic acid]
397 | Cc1c(-c2ccc(=O)n(CCCC(F)(F)F)c2)c2ccccc2n1CC(=O)O [Example 296, 2-(2-methyl-3-(6-oxo-1-(4,4,4-trifluorobutyl)-1,6-dihydropyridin-3-yl)-1H-indol-1-yl)acetic acid]
> 2000 | COc1ccc2c(c1)c(-c1ccc(=O)n(CC(F)(F)F)c1)c(C)n2CC(=O)O [Example 298, 2-(5-methoxy-2-methyl-3-(6-oxo-1-(2,2,2-trifluoroethyl)-1,6-dihydropyridin-3-yl)-1H-indol-1-yl)acetic acid]
> 2000 | Cc1c(-c2ccc(=O)n(Cc3cccc(F)c3F)c2)c2cc(F)ccc2n1CC(=O)N(C)C [Example 300, 2-(3-(1-(2,3-difluorobenzyl)-6-oxo-1,6-dihydropyridin-3-yl)-5-fluoro-2-methyl-1H-indol-1-yl)-N,N-dimethylacetamide]
159 | Cc1c(-c2ccc(=O)n(Cc3cccc(F)c3F)c2)c2cc(F)ccc2n1CC(=O)NS(C)(=O)=O [Example 302, 2-(3-(1-(2,3-Difluorobenzyl)-6-oxo-1,6-dihydropyridin-3-yl)-5-fluoro-2-methyl-1H-indol-1-yl)-N-(methylsulfonyl)acetamide]
> 2000 | Cc1c(-c2ccc(=O)n(Cc3cccc(F)c3F)c2)c2cc(F)ccc2n1CCC(=O)O [Example 303, 3-(3-(1-(2,3-difluorobenzyl)-6-oxo-1,6-dihydropyridin-3-yl)-5-fluoro-2-methyl-1H-indol-1-yl)propanoic acid]
1180 | Cc1ccc2c(c1)c(-c1ccc(=O)n(CC(F)(F)F)c1)c(C)n2CC(=O)O [Example 304, 2-(2,5-dimethyl-3-(6-oxo-1-(2,2,2-trifluoroethyl)-1,6-dihydropyridin-3-yl)-1H-indol-1-yl)acetic acid]
> 2000 | Cc1c(-c2ccc(=O)n(Cc3cccc(F)c3F)c2)c2cc(F)ccc2n1CCO [Example 305, 1-(2,3-difluorobenzyl)-5-(5-fluoro-1-(2-hydroxyethyl)-2-methyl-1H-indol-3-yl)-pyridin-2(1H)-one]
